From US10752913B2, “Selectable marker genes” (Dow AgroSciences LLC, priority 2006, dated 2020)

Legend:
Type in all cases: cell-based
[1] = test system: NT-1 tobacco cells transformed with pDAB3778 (DSM-2); assay: Tobacco cell culture transformation, selection frequency; settings: second experiment
Method: Four days prior to transformation, a 1 week old NT-1 tobacco suspension, which was being subcultured every 7 days, was subcultured to fresh medium by adding 2 ml of the NT-1 culture or 1 ml of packed cells into 40 ml NT-1 B media. The subcultured suspension was maintained in the dark at 25±1° C. on a shaker at 125 rpm.
A 50% glycerol stock of Agrobacterium tumefaciens [strain LBA4404] harboring a binary vector of interest was used to initiate a liquid overnight culture by adding 20, 100, or […] to 30 ml YEP liquid (10 g/L yeast extract, 10 g/L Peptone, 5 g/L NaCl, 0-10 g/L Sucrose) containing 50-100 mg/L spectinomycin. The bacterial culture was incubated in the dark at 28° C. in an incubator shaker at 150-250 rpm until the OD600 was 1.5±0.2. This took approximately 18-20 hrs.
For each vector tested, 20-70 mL of 4-day old suspension cells were transferred into a sterile vessel, to which 500-1750 μl of Agrobacterium suspension at the proper OD was added. To ensure a uniform mixture was achieved, the cells were pipetted up and down 5 times with a 10 ml wide-bore pipet. The uniform suspension was then drawn up into a 25 ml barrel of a repeat pipetter and 250 μl of the suspension was dispensed per well into 24-well plates, continuing until the suspension was exhausted. The well plates were wrapped in parafilm and cultured in the dark at 25±1° C. without shaking for a 3 day co-cultivation.
Following the co-cultivation, all excess liquid was removed from the individual wells with a 1 mL pipet tip, and remaining cells were resuspended in 1 ml NTC liquid (NT-1 B medium containing 500 mg/L carbenicillin, added after autoclaving). The contents of an individual well were dispersed across the entire surface of 100×25 mm selection plates using disposable transfer pipets. Selection media consisted of NTC media solidified with 8 g/l TC agar supplemented with 7.5 to 15 mg/L bialaphos or technical grade glufosinate ammonium, added after autoclaving. All selection plates, left unwrapped, were maintained in the dark at 28° C.
Putative transformants appeared as small clusters of callus on a background of dead, non-transformed cells. Calli were isolated approximately 2-6 weeks post-transformation. Each callus isolate was transferred to its own 60×20 mm plate containing the same selection medium and allowed to grow for approximately 2 weeks before being submitted for analysis.
A side-by-side experiment comparing DSM-2 (v2) with PAT was completed. In the study, 100% of the PAT selection plates produced at least one PCR positive isolate on 10 mg/L bialaphos media, whereas 79% of the DSM-2 (v2) selection plates produced at least one PCR positive isolate.
In a second experiment, DSM-2 (v2)-treated tobacco cells were selected upon 7.5, 10, 12.5, or 15 mg/L bialaphos or technical grade glufosinate ammonium. Transformation frequencies (% of selection plates producing at least one callus) following verification by coding region PCR are listed in the table below.

[2] = test system: Escherichia coli BL21—Star (DE3); assay: Bacterial growth on minimal media containing glufosinate (BASTA); settings: only strain of five tested
Method: Selected cell lines of Escherichia coli and Agrobacterium tumefaciens were inoculated on minimal media containing incrementally increasing concentrations of Glufosinate (BASTA). The cell lines; BL21—Star (DE3), Top10, DH5═, Agrobacterium tumefaciens C58, and Agrobacterium tumefaciens LBA4404s were initially grown up on complex media. The Escherichia coli strains were grown in LB and the Agrobacterium tumefaciens strains were grown in YEP. Five microliters of bacterial culture was inoculated and dispersed evenly onto minimal media plates containing various concentrations of glufosinate. The concentrations consisted of 0 μg/ml, 250 μg/ml, 500 μg/ml, 1000 μg/ml, 2000 μg/ml, and 4000 μg/ml of BASTA. In addition, the bacterial strains were inoculated onto a plate of complex media as a control—Agrobacterium tumefaciens strains were inoculated on YEP agar plates, and Escherichia coli strains were inoculated on LB agar plates. The plates containing the Escherichia coli strains were incubated at 37° C. for 24 hours. The plates containing the Agrobacterium tumefaciens strains were incubate at 25° C. for 48 hours. […] Table 7 illustrates the capability of the various strains to grow on minimal media containing glufosinate.

[3] = test system: Escherichia coli BL21—Star (DE3) expressing DSM-2 (v2) (pDAB4412); assay: Complementation of cell growth on glufosinate, pET expression
Description: A pET28a(+) expression plasmid containing PAT (v3) was constructed as a positive control. PAT (v3) was cloned as an NcoI-SacI fragment into corresponding restriction sites of pDAB779. Positive clones containing the PAT (v3) gene fragment were verified via restriction enzyme digestion. This construct was labeled as pDAB4434.
The plasmids, pDAB4434, pDAB4412, and an empty pET vector (control) were transformed into Escherichia coli BL21—Star (DE3) bacterial cells. Expression cultures were initiated with 10-200 freshly transformed colonies into 250 mL LB medium containing 50 μg/ml antibiotic and 75 μM IPTG (isopropyl-[…]). The cultures were grown at 28° C. for 24 hours at 180-200 rpm. Five microliters of the culture was inoculated onto a complex media control and minimal media containing incrementally increasing concentrations of glufosinate and 20 μM IPTG. The cultures were dispersed evenly over the plates and incubated at 28° C. for 24 hours.

[4] = test system: Escherichia coli BL21—Star (DE3) with 3264 (CsVMV promoter//DSM-2); assay: Complementation on glufosinate with plant/viral promoters; settings: DSM-2 driven by CsVMV promoter
Method: (§1) Plasmid constructs in which the DSM-2 (v2) and PAT gene coding sequences were expressed, under either the viral promoters CsVMV or the plant promoter AtUbi10, were assayed for complementation on minimal media containing glufosinate. The plasmids 3778 (Rb7 MARv3//AtUbi10 promoter//DSM-2 (v2)//Atu Orf 1 3′UTR), 3779 (Rb7 MARv3//AtUbi10 promoter//PAT//Atu Orf 1 3′UTR), 3264 (CsVMV promoter//DSM-2//Atu Orf24 3′UTR), 3037 (CsVMV promoter//PAT//Atu Orf 25/26 3′UTR), and 770 (control plasmid containing CsVMV promoter//GUS v3//Atu Orf 24 3′UTR) were transformed into Escherichia coli BL21—Star (DE3) and grown up in complex media. Five microliters of the cultures were plated on minimal media containing increasing concentrations of Glufosinate and incubated at 37° C. for 48 hours.

[5] = test system: Escherichia coli BL21—Star (DE3) with 3778 (AtUbi10 promoter//DSM-2 (v2)); assay: as above; settings: DSM-2 driven by At Ubi10 promoter
Method: as §1

SMILES | Transformation frequencies (% of selection plates producing at least one callus) following verification by coding region PCR ([1]; 7.5 mg/L in selection medium) | Transformation frequencies (% of selection plates producing at least one callus) following verification by coding region PCR ([1]; 10 mg/L in selection medium) | Transformation frequencies (% of selection plates producing at least one callus) following verification by coding region PCR ([1]; 12.5 mg/L in selection medium) | Transformation frequencies (% of selection plates producing at least one callus) following verification by coding region PCR ([1]; 15 mg/L in selection medium) | inhibition of growth on minimal media [2] | glufosinate concentration on minimal media to which DSM-2 expression complemented resistance [3] | glufosinate concentration in minimal media to which resistance was provided [4] | glufosinate concentration in minimal media to which resistance was provided [5]
CP(=O)(O)CCC(N)C(=O)O (stereo not drawn) [glufosinate] | 55.6% | 50.0% | 44.4% | 38.9% | substantially inhibited | 400 µg/mL | 200 µg/mL | 200 µg/mL
C[C@H](NC(=O)[C@H](C)NC(=O)[C@@H](N)CCP(C)(=O)O)C(=O)O [Bialaphos] | 38.9% | 44.4% | 38.9% | 22.2% |  |  |  | 
